Where two headings read alike, the source gives them in different places.

A short description of series [1]: Hardness (Shore hardness tester, GB/T 531-2008). It is filed as physicochemical. The following applies: PVC plastic: 100 parts PVC resin, 35 parts plasticizer, 2 parts oxidized polyethylene wax, 5 parts octyltin maleate. As to the method: The aconitates and tributyl citrate prepared in the above examples and comparative examples were added as plasticizers to PVC resin to obtain PVC plastics. […] The above raw materials were mixed and prepared using the same mixing process to obtain finished PVC products. The performance tests were performed on different plasticizers and the obtained PVC finished products in the above examples and comparative examples. […] Three points were selected for each group of samples, each point was tested once, and a median value was taken. • 2. […] Compatibility: tests were performed using a water value method. Since water molecules are polar, the compatibility between the plasticizer and water can characterize the compatibility between the plasticizer and polar materials (PVC, PLA, and nitrile rubber). When a certain plasticizer has good compatibility with water, it has good compatibility with PVC, and vice versa. In the experiment, 2.5 g of plasticizer and 25 g of acetone were added to a beaker, titrated with a burette filled with deionized water, and agitated while titrating until turbidity appears, and the volume of deionized water consumed was recorded. • 4. Glass transition temperature (Tg): the glass transition temperature was tested using a dynamic mechanical analyzer. Test conditions: nitrogen was taken as the carrier gas, at a test temperature range of -40 to 80°C, a heating rate of 3°C/min, and a frequency of 1 Hz.

Series [2] can be described thus: Compatibility (water value method). It is filed as physicochemical. The following applies: 2.5 g plasticizer and 25 g acetone titrated with deionized water until turbidity; Table 5. How it is done:
(§1) The aconitates and tributyl citrate prepared in the above examples and comparative examples were added as plasticizers to PVC resin to obtain PVC plastics. The PVC plastics include 100 parts of PVC resin, 35 parts of plasticizer, 2 parts of oxidized polyethylene wax, and 5 parts of octyltin maleate. The above raw materials were mixed and prepared using the same mixing process to obtain finished PVC products. The performance tests were performed on different plasticizers and the obtained PVC finished products in the above examples and comparative examples. […] Three points were selected for each group of samples, each point was tested once, and a median value was taken. • 2. […] Compatibility: tests were performed using a water value method. Since water molecules are polar, the compatibility between the plasticizer and water can characterize the compatibility between the plasticizer and polar materials (PVC, PLA, and nitrile rubber). When a certain plasticizer has good compatibility with water, it has good compatibility with PVC, and vice versa. In the experiment, 2.5 g of plasticizer and 25 g of acetone were added to a beaker, titrated with a burette filled with deionized water, and agitated while titrating until turbidity appears, and the volume of deionized water consumed was recorded. • 4. Glass transition temperature (Tg): the glass transition temperature was tested using a dynamic mechanical analyzer. Test conditions: nitrogen was taken as the carrier gas, at a test temperature range of -40 to 80°C, a heating rate of 3°C/min, and a frequency of 1 Hz.

Series [3] in a line: Acid value (KOH titration). It is filed as physicochemical. To be noted: aconitate/citrate products, Table 4. How it is done: The aconitates and citrates prepared in the above examples and comparative examples were tested for acid value, purity, chromaticity, yield, triester conversion rate, and water content. […] The mixture was neutralized with 0.02 mol·L^-1 potassium hydroxide aqueous solution until a faint pink color appears, and the consumed volume Vo was recorded. 1 g of the sample (accurate to 0.01 g) was weighed using a ground-neck conical flask, then one portion of the above neutralized solution was added. After the sample was completely dissolved, the sample was titrated with 0.02 mol·L^-1 potassium hydroxide-ethanol standard titration solution (the titration should be completed within 30 seconds) until a faint pink color appeared and persisted for 5 seconds without fading, which was considered as an end point. The consumed volume V was recorded. […] Chromatographic column: C18 column; injector: 10 µL micro-syringe; solvent: acetonitrile (HPLC grade); acquisition time: 15 min; mobile phase: 80% acetonitrile (HPLC grade) and 20% deionized water; injection volume: 1 µL; wavelength: 230 nm.

A short description of series [4]: Tensile properties (GB/T 1040-2006): tensile modulus at 100%, elongation at break, elastic modulus. To be noted: PVC plastic with 35 parts plasticizer; 50 mm/min, 25°C. It counts as physicochemical. How it is done:
as §1

A short description of series [5]: Water content (Karl Fischer moisture meter). It is filed as physicochemical. To be noted: aconitate/citrate products, Table 4. The source says:
6. Water content: a Karl Fischer moisture meter is used to test the water content (retained to two decimal places).

Series [6] in a line: Chromaticity (platinum-cobalt colorimetry). It counts as physicochemical. The following applies: aconitate/citrate products, Table 4; colour comparison at 25°C. As to the method:
3. Chromaticity: preparation of 500# platinum-cobalt colorimetric standard stock solution: 1.2450 g of potassium chloroplatinate and 1.0000 g of cobalt chloride were weighed, with an accuracy of 0.0002 g, the mixture was dissolved in 100 mL of hydrochloric acid, and then diluted to 1000 mL with distilled water. This solution is just the 500# colorimetric standard comparison solution.
Preparation of colorimetric standards below 500#: different amounts of the 500# stock solution was prepared, and diluted with distilled water to the volume of a colorimetric tube to prepare colorimetric standard solutions of any number. The calculation formula is as follows: V = (N×V1)/500 [formula]
In the formula, V is the volume of the 500# standard stock solution taken to prepare the N# colorimetric standard solution, in mL; V1 is the volume of the colorimetric tube used, in mL; and N is the number of the colorimetric standard solution to be prepared.
Color comparison determination was performed at 25°C.

Series [7] is described as follows: Glass transition temperature (dynamic mechanical analyzer). The following applies: PVC plastic with 35 parts plasticizer; -40 to 80°C, 3°C/min, 1 Hz. It is filed as physicochemical. How it is done:
as §1

A short description of series [8]: Residual amounts of fat-soluble and water-soluble pigments (HPLC). It counts as physicochemical. To be noted: aconitate/citrate products, Table 4. As to the method:
7. Residual amounts of fat-soluble pigments and water-soluble pigments: • a high-performance liquid chromatograph (HPLC) was used, and the instrument sensitivity and stability of the detector should comply with the provisions of GB/T 16631-2008. Chromatographic column: C18 column; injector: 10 µL micro-syringe; solvent: acetonitrile (HPLC grade); acquisition time: 15 min; mobile phase: 80% acetonitrile (HPLC grade) and 20% deionized water; injection volume: 1 µL; wavelength: 230 nm.
Test: the instrument was adjusted according to the above provisions. After the baseline was stable, 0.2 µL of the sample was injected using a micro-syringe, and the integrator or chromatographic workstation was started at the same time. A pigment concentration-integral area standard curve was established by testing the integral areas of pigments with different concentrations. When the pigment content was measured, the corresponding pigment integral area was automatically given by the instrument, and the pigment concentration was obtained by comparing with the standard curve. The ratio of the pigment concentration to the sample concentration is the pigment content.

Series [9] relates to Aspergillus terreus engineered strains. It counts as cell-based. The following applies: for effect on the yield of trans-Aconitic acid: additionally added at certain doses, shake flask; for increase of the yield of trans-Aconitic acid: 96 hours of shake flask fermentation. How it is done: Additional supplementation experiments were performed on differential amino acids and vitamins between high-yield and low-yield corn steep liquor powders. Based on the high-yield corn steep liquor powder medium, fermentation verification was performed by adding differential amino acid components and vitamin components separately. Each group was set up with three parallel replicates. After 96 hours of shake flask fermentation, the supernatant of the fermentation broth was collected for quantitative analysis using HPLC detection.

In the case of `CCCCOC(=O)C=C(CC(=O)OCCCC)C(=O)OCCCC` [Example 32, tributyl aconitate], the “Hardness/Shore D” value in [1] was 43 Shore D. This compound also registered a Compatibility in series [2] of 13.1 mL. The Acid value in series [3] came out at 0.05 KOH/g. Also, in series [4], the Elastic modulus is recorded as 133.4 MPa, the Elongation at break amounted to 241.2% and the “Tensile modulus at 100%” value was found to be 15.6 MPa. The compound further displayed a Water content in series [5] of 0.02%. In [6], this compound gave a Chromaticity of 60 Pt-Co. In series [7], the Tg came to 28.7 °C. Also, in series [8], the “Residual amounts of fat-soluble pigments” value is on record as 382 ppm and the “Residual amounts of water-soluble pigments” value was 1325 ppm.
Take `CCCCOC(=O)C=C(CC(=O)OCCCC)C(=O)OCCCC` [Example 33, tributyl aconitate]: the “Hardness/Shore D” value in series [1] stood at 47 Shore D. Moreover, the Compatibility in series [2] is 11.3 mL. The Acid value in [3] is 0.05 KOH/g. In [4], the Elastic modulus is on record as 204.5 MPa, the Elongation at break worked out at 223.7% and the “Tensile modulus at 100%” value was 18.2 MPa. The compound also registered a Water content in series [5] of 0.04%. Further, the Chromaticity in series [6] was 100 Pt-Co. The Tg in series [7] is 30.8 °C. In addition, in series [8], the “Residual amounts of fat-soluble pigments” value is on record as 395 ppm and the “Residual amounts of water-soluble pigments” value was determined as 4064 ppm.
As for `CCCCOC(=O)C=C(CC(=O)OCCCC)C(=O)OCCCC` [Example 34, tributyl aconitate], the “Hardness/Shore D” value in [1] was 41 Shore D. Moreover, the Compatibility in [2] came to 16.1 mL. The compound further showed an Acid value in [3] of 0.05 KOH/g. Also, in series [4], the Elastic modulus is reported as 77.9 MPa, the Elongation at break came out at 258.1% and the “Tensile modulus at 100%” value stood at 14.7 MPa. Besides, the Water content in [5] is 0.03%. Besides, the Chromaticity in [6] came to 50 Pt-Co. In [7], this compound displayed a Tg of 27.7 °C. In series [8], the “Residual amounts of fat-soluble pigments” value is 428 ppm and the “Residual amounts of water-soluble pigments” value is recorded as 864 ppm.
`CCCCOC(=O)C=C(CC(=O)OCCCC)C(=O)OCCCC` [Example 35, tributyl aconitate]: in [1], the “Hardness/Shore D” value was found to be 55 Shore D. Moreover, the Compatibility in series [2] is listed as 8.1 mL. This compound returned an Acid value in series [3] of 0.05 KOH/g. Besides, in series [4], the Elastic modulus turned out to be 348.6 MPa, the Elongation at break is given as 173.4% and the “Tensile modulus at 100%” value worked out at 19.8 MPa. In addition, the Water content in series [5] was 0.03%. In series [6], this compound gave a Chromaticity of 300 Pt-Co. This compound showed a Tg in series [7] of 38.4 °C. Also, in [8], the “Residual amounts of fat-soluble pigments” value came out at 3475 ppm and the “Residual amounts of water-soluble pigments” value is reported as 5348 ppm.
With `CCCCOC(=O)C=C(CC(=O)OCCCC)C(=O)OCCCC` [Example 36, tributyl aconitate], the “Hardness/Shore D” value in series [1] is on record as 43 Shore D. In series [2], the Compatibility amounted to 13.4 mL. In [3], this compound yielded an Acid value of 0.05 KOH/g. In series [4], the Elastic modulus is 137.4 MPa, the Elongation at break is recorded as 243.4% and the “Tensile modulus at 100%” value was 15.9 MPa. This compound gave a Water content in series [5] of 0.04%. In series [6], this compound returned a Chromaticity of 60 Pt-Co. This compound displayed a Tg in [7] of 29.7 °C. Moreover, in series [8], the “Residual amounts of fat-soluble pigments” value came out at 836 ppm and the “Residual amounts of water-soluble pigments” value worked out at 1368 ppm.
For the compound `NC(=O)CC[C@H](N)C(=O)O` [L-glutamine], in series [9], the “effect on the yield of trans-Aconitic acid” value (shortened to “effect on the yield”) is reported as “varying degrees of decrease”.
`NCC(=O)O` [L-glycine]: the “effect on the yield” value in [9] is on record as “varying degrees of decrease”.
Same read-out and setting: the result for `CC[C@H](C)[C@H](N)C(=O)O` [L-isoleucine] reads “varying degrees of decrease”.
Consider `CC(C)C[C@H](N)C(=O)O` [L-leucine], for which, in series [9] (addition of 0.125 g/L), the “increase of the yield of trans-Aconitic acid” value amounted to 42%.
With `NCCCC[C@H](N)C(=O)O` [L-lysine], the “effect on the yield” value in series [9] is “varying degrees of decrease”.
The same measure, in the same setting: the result for `O=C(O)[C@@H]1CCCN1` [L-proline] reads “varying degrees of decrease”.
With `O=C(O)CCCC[C@@H]1SC[C@@H]2NC(=O)N[C@@H]21` [biotin-vitamin B7, biotin], the “increase of the yield of trans-Aconitic acid” value in [9] (addition of 0.11 g/L) is listed as 17.5%.
In the case of `CC(O)C(=O)O` (stereo not drawn) [lactic acid], the “effect on the yield” value in series [9] is “varying degrees of decrease”.

These data come from patent EP4715056A1, “BIO-BASED TRANS-ACONITATE, PREPARATION METHOD THEREFOR AND USE THEREOF” (Qingdao Institute of Bioenergy and Bioprocess Technology, …, priority 2023, dated 2024).
